Results on 39 compounds are retold here after the supplement of paper PMC10949913.

Common to all, as to test: area under concentration-response curve (viability) (AUC (a.u.)); higher = less active
Holding throughout (details): 48 h

Assay [1] has as its system CU-ACC1. Summed up: (§1)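 Three adrenocortical carcinoma cell lines were seeded at 500–1,000 cells/well in 5 µL medium in 1,536-well plates. 23 nL of each MIPE 5.0 library compound was added at 11 concentrations. After 48 h (per the protocol name), CellTiter-Glo was added for 15 minutes at room temperature and luminescence was read. Signals were normalised per plate to vehicle and empty-well controls. AC50 and area under the curve came from fitted concentration-response curves, keeping only inhibitory or non-responding curve classes.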

For assay [2], the system named is CU-ACC2. Put shortly: as §1
The subject of assay [3] is NCI-H295R. Summed up:
as §1

Turning to `Nc1nc(OC(c2ccc(-c3cccc(F)c3)cc2)C(F)(F)F)cc(-c2ccc(C[C@H](N)C(=O)O)cc2)n1` (some centres not stated), the “area under concentration-response curve” value in assay [1] worked out at 546; in assay [2] it was 519; in assay [3], 555.

Regarding `COc1cc(C)c(/C=C/C(C)=C/C=C/C(C)=C/C(=O)O)c(C)c1C`, the “area under concentration-response curve” value is 484 in assay [1], 544 in assay [2] and 524 in assay [3].

Take `C[C@]12CC[C@H]3[C@@H](C\C=C/4C[C@@H](O)CC[C@]34C)[C@@H]1CCC2=O`: the “area under concentration-response curve” value in assay [1] turned out to be 523; in assay [2], 591; in assay [3], 479.

As to `C[C@]1(C(=O)N(CCCC(=O)O)Cc2cccc(Cl)c2)CCN1C(=O)c1csc2ccccc12`, the results for the “area under concentration-response curve” value in assay [1], in assay [2] and in assay [3] were 490, 584 and 532, respectively.

Take `CCC1(c2ccc(N)cc2)CCC(=O)NC1=O` (configuration not stated): the “area under concentration-response curve” value in assay [1] is 591; in assay [2], 631; in assay [3], 568.

Turning to `C=C(C)[C@@H]1CC[C@]2(C)CC[C@]3(C)[C@H](CC[C@@H]4[C@@]5(C)CC[C@H](O)C(C)(C)[C@@H]5CC[C@]43C)[C@@H]12`, the “area under concentration-response curve” value turned out to be 484 in assay [1], 582 in assay [2] and 551 in assay [3].

On to `CC(NC1=CC=CC=C1)C\2=C\C(=C/N3C(=O)\C=C(/N=C23)N4CCOCC4)C` (configuration not stated), for which the entries for the “area under concentration-response curve” value in assay [1], in assay [2] and in assay [3] were 414, 647 and 583, respectively.

In the case of `CC(=O)OC[C@@H]1O[C@H]([C@H](OC(C)=O)[C@@H]1OC(C)=O)N2\C=C/C(=O)NC2=O`, the entries for the “area under concentration-response curve” value in assay [1], in assay [2] and in assay [3] were 497, 521 and 459, respectively.

As for `C[C@H](CCC(=O)O)[C@H]1CC[C@H]2[C@@H]3[C@@H](O)C[C@@H]4C[C@H](O)CC[C@]4(C)[C@H]3CC[C@]12C`, the “area under concentration-response curve” value in assay [1] was determined as 519; in assay [2], 496; in assay [3] it was 538.

For `NC(=O)c1cnccn1`, the figures for the “area under concentration-response curve” value in assay [1], in assay [2] and in assay [3] were 346, 301 and 382, respectively.

Turning to `C[C@H](O)[C@H]1[C@@H]2[C@H](C)C(=C(\N2C1=O)C(O)=O)/S[C@@H]3CN[C@H](CN[S+](N)([O-])=O)C3`, the “area under concentration-response curve” value is 516 in assay [1], 643 in assay [2] and 578 in assay [3].

With `C[C@@H]1CC2=C(C=C3OCOC3=C2)C(=N\N1C(C)=O)/C4=CC=C(N)C=C4`, the “area under concentration-response curve” value in assay [1] is 394; in assay [2], 398; in assay [3] it was 406.

Take `O=C(NCc1cccc(O)c1)Nc1nc(-c2ccncc2)cs1`: the “area under concentration-response curve” value turned out to be 546 in assay [1], 582 in assay [2] and 559 in assay [3].

As for `Cc1cc(O)cc2c1[C@]1(C)CC[C@H]3C(C)(C)CCC[C@]3(C)[C@H]1C2`, the “area under concentration-response curve” value was 53.6 in assay [1], 190 in assay [2] and 89.9 in assay [3].

Regarding `Cn1cc(-c2ccc(F)c(C(F)(F)F)c2)nc1C1CCN(c2ncnc3[nH]ncc23)CC1`, the entries for the “area under concentration-response curve” value in assay [1], in assay [2] and in assay [3] were 471, 555 and 510, respectively.

For the compound `CNc1nc(Nc2ccc(C(=O)N3CCOCC3)cc2OC)ncc1Cl`, the “area under concentration-response curve” value stood at 511 in assay [1], 607 in assay [2] and 555 in assay [3].

With `CC1=C(C)C\2=C(S1)[N]3C(=NN=C3[C@H](CC(N)=O)\N=C2C4=CC=C(Cl)C=C4)C`, the “area under concentration-response curve” value in assay [1] came to 516; in assay [2] it was 538; in assay [3] it was 452.

On to `Cc1c(F)cccc1NC(=O)Nc1ccc(Cl)c([S+](=O)([O-])[C@H]2CCCNC2)c1O`, for which the “area under concentration-response curve” value in assay [1] was found to be 540; in assay [2], 545; in assay [3], 552.

As for `N[S+](=O)([O-])c1cc2c(cc1Cl)NC(C(Cl)Cl)N[S+]2(=O)[O-]` (configuration not stated), the “area under concentration-response curve” value was 477 in assay [1], 591 in assay [2] and 536 in assay [3].

As to `CC(C)C(C)/C=C/C(C)C1CCC2C3=CC=C4CC(O)CCC4(C)C3CCC21C` (configuration not stated), the entries for the “area under concentration-response curve” value in assay [1], in assay [2] and in assay [3] were 521, 636 and 597, respectively.

`O=C1CCC[C@@H]2[C@H]3CCC[N+]4([O-])CCC[C@@H](CN12)[C@@H]34` (some centres not stated): the figures for the “area under concentration-response curve” value in assay [1], in assay [2] and in assay [3] were 536, 610 and 552, respectively.

Take `CC(C)(N[S+](=O)([O-])c1ccc2c(Cl)cnc(NC(=N)N)c2c1)C(=O)O`: the “area under concentration-response curve” value in assay [1] worked out at 527; in assay [2] it was 609; in assay [3], 570.

Take `O=C(NC1CCOCC1)c1ccc(-c2cc(-c3c[nH]nc3-c3ccccn3)ccn2)cc1`: the “area under concentration-response curve” value in assay [1] was determined as 429; in assay [2], 497; in assay [3], 453.

With `Cc1noc(C)c1-c1ccc(-c2cc(C(N)=O)c(NC(N)=O)s2)c(O[C@H]2CCNC2)c1`, the “area under concentration-response curve” value came out at 456 in assay [1], 471 in assay [2] and 447 in assay [3].

`O=C(O)C[C@H]1CC[C@H](c2ccc(-c3ccc(Nc4ccc(C(F)(F)F)nc4)cn3)cc2)CC1`: the “area under concentration-response curve” value in assay [1] stood at 504; in assay [2] it was 580; in assay [3], 538.

Take `Cc1c(F)cc(C(=O)NC2CC2)cc1-c1ccc(C(=O)NCC(C)(C)C)cn1`: the results for the “area under concentration-response curve” value in assay [1], in assay [2] and in assay [3] were 389, 427 and 394, respectively.

Regarding `CN(C)[C@H]\1[C@@H]2[C@@H](O)[C@H]3\C(=C(O)/[C@]2(O)C(=O)\C(=C1O)C(N)=O)C(=O)C4=C(C=CC=C4O)[C@@]3(C)O`, the results for the “area under concentration-response curve” value in assay [1], in assay [2] and in assay [3] were 593, 625 and 530, respectively.

As to `CN1\C(=C(\O)C2=C(C=CC=C2)[S+]1([O-])=O)C(=O)NC3=CC=CC=N3`, the “area under concentration-response curve” value in assay [1] stood at 432; in assay [2] it was 495; in assay [3], 464.

Regarding `CC1(C)CCC(C)(C)c2cc(NC(=O)c3ccc(C(=O)O)cc3)ccc21`, the “area under concentration-response curve” value in assay [1] was found to be 468; in assay [2], 495; in assay [3], 443.

As to `C[C@@H]1CCN(C(=O)N2CCCC2)C[C@@H]1N(C)c1ncnc2[nH]ccc12`, the figures for the “area under concentration-response curve” value in assay [1], in assay [2] and in assay [3] were 477, 562 and 505, respectively.

With `NC1CCC(N[C@@H]2C[C@H]2c2ccccc2)CC1` (some centres not stated), the “area under concentration-response curve” value in assay [1] came to 409; in assay [2], 487; in assay [3] it was 458.

For the compound `C[C@@H]1CC(=O)Nc2cccc(-c3ccc4c(c3)c(-c3cnn(C)c3)nn4C)c2N1`, the “area under concentration-response curve” value in assay [1] came out at 517; in assay [2] it was 602; in assay [3], 550.

As to `O=C(O)CCNC(=O)c1ccc(/N=N/c2ccc(O)c(C(=O)O)c2)cc1`, the results for the “area under concentration-response curve” value in assay [1], in assay [2] and in assay [3] were 519, 635 and 589, respectively.

For `CNC[C@H](O)[C@@H](O)[C@H](O)[C@H](O)CO`, the figures for the “area under concentration-response curve” value in assay [1], in assay [2] and in assay [3] were 421, 542 and 547, respectively.

In the case of `COC1=C2OC(=O)\C=C/C2=CC3=C1OC=C3`, the “area under concentration-response curve” value in assay [1] worked out at 420; in assay [2] it was 482; in assay [3], 475.

As to `COc1ccc([C@@H]2Sc3ccccc3N(CCN(C)C)C(=O)[C@@H]2OC(C)=O)cc1`, the “area under concentration-response curve” value in assay [1] worked out at 473; in assay [2] it was 576; in assay [3], 533.

Consider `Cc1ccc(-c2nc(N)nc3c2nnn3Cc2cccc(CO[C@H]3CCOC3)n2)o1`, for which the “area under concentration-response curve” value in assay [1] stood at 520; in assay [2], 569; in assay [3] it was 561.

As to `O=C(Cc1ccc(-c2ccc(OCCN3CCOCC3)cc2)cn1)NCc1ccccc1`, the “area under concentration-response curve” value in assay [1] is 397; in assay [2], 531; in assay [3], 493.

On to `COc1cc2ncnc(Nc3ccc(F)c(Cl)c3)c2cc1OCCCN1CCOCC1`, for which the “area under concentration-response curve” value in assay [1] is 562; in assay [2], 624; in assay [3] it was 594.
